# Test results published in PubChem BioAssay (NCI).
# “And” between values parts separate entries of the source, which are not always exact repeats. Equal entries are not always repeated.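 1) Cells in 96-well plates. 2) Compound, 48 h, 5 concentrations. 3) Linear interpolation between surrounding doses. 4) Unreached endpoint = highest concentration. At the GI50, growth is halved. TGI: total growth inhibition.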
# Test system: HCC-2998 colon
# Assay: DTP human tumour cell line panel, 48 h
SMILES,TGI,GI50
Cc1ccc(C)c(NC(=O)c2cccc([N+](=O)[O-])c2O)c1,> 100 µM,–
O=c1oc2ccc(-c3ccc(F)cc3F)cc2c(=O)n1-c1cccc(C(F)(F)F)c1,7.94 µM,2.64 µM
COC(=O)c1ccc2c(c1)C(=O)c1c-2n(CCCN=[N+]=[N-])c(=O)c2cc(OC)c(OC)cc12,> 100 µM,> 100 µM
O=C(Cc1ccc(F)c(Cl)c1)Nc1cc(C2(C(F)(F)F)CC2)nn1CC1CCCCC1,> 15 µM,4.45 µM
N#Cc1nn(-c2cc(=O)[nH]c3ccc(Cl)cc23)c(N)c1C#N,> 100 µM,> 100 µM
On1c(-c2ccccc2)c(-c2ccccc2N2CCCC2)c2ccccc21,> 100 µM,–
CCN1CCN(c2cc(C)c3cc(NC(=O)c4ccc(OC)c(OC)c4)ccc3n2)CC1,> 100 µM,> 57.3 µM
CC(C)(C)c1cc(C(P(=O)(O)O)P(=O)(O)O)cc(C(C)(C)C)c1O,> 100 µM,–
COC(=O)c1c2c(c(C)[n+]([O-])c1C)C(=O)C=C(NCc1ccc(F)cc1)C2=O,1.77 µM,0.442 µM
CC(C)C1=Cc2ccc3c(c2C(=O)C1=O)CCCC3(C)C,32.7 µM,–
CSc1nc(SC)c2c(C#N)[nH]nc2n1,> 100 µM,–
CCCC(=O)Nc1cn(COC)c(C(=O)N2C[C@@H]3C[C@]34C2=CC(=O)c2[nH]cc(C)c24)n1,13.1 µM and 19.1 µM,6.23 µM
CC(=O)Nc1ccc(-c2csc(Nc3cccc(-c4csc(C)n4)c3)n2)cc1,8.98 µM,0.00657 µM
CNCCOC(=O)/C=C1\CC[C@H]2[C@@H]([C@@H](O)C(=O)[C@@H]3[C@]2(C)CC[C@H](O)[C@]3(C)C(=O)OC)[C@H]1C,3.63 µM,1.35 µM

# Test system: KM12 colon
# Assay: DTP human tumour cell line panel, 48 h
SMILES,GI50,TGI
CN1CCN(c2ccc(Nc3cc(-c4cccc(-n5ccc6cc(C7CC7)cc(F)c6c5=O)c4CO)cn(C)c3=O)nc2)CC1,6.16 µM,31.1 µM
COc1ccc2nc3ccccc3c(NCc3ccc(F)cc3)c2c1,2.42 µM,8.88 µM
CN(C)C1CCN(C(=O)c2ccc(NC(=O)Nc3ccc(-c4nc(N5CCOCC5)c5cccn5n4)cc3)cc2)CC1,0.155 µM,7.69 µM
COc1ccc(OCC(=O)O)c2c1CCCC2=O,–,> 100 µM
COc1cc(N=Nc2ccc(O)c3ncccc23)c2ncccc2c1,4.21 µM,> 100 µM
Cc1nc(Nc2ccc(Cl)cc2)sc1C(=O)NNC(=S)NN,–,42.3 µM
CCn1c(O)c(/C=N/NC(=O)C(C)c2ccc(CC(C)C)cc2)sc1=S (stereo not drawn),0.371 µM,> 32.8 µM
C[C@@H]1C[C@@H]([C@@H](CC2CC(=O)NC(=O)C2)OC(=O)CC(=O)c2ccccc2)C(=O)[C@@H](C)C1,0.888 µM,70.6 µM
N=c1c2c(-c3ccccc3)c(-c3ccccc3)n(Cc3ccccc3)c2ncn1C1CCC(O)CC1 (stereo not drawn),0.327 µM,11.1 µM
O=c1c(F)cn(Cc2ccc(C34CC5CC(CC(C5)C3)C4)c(O)c2)c(=O)n1Cc1ccc(C23CC4CC(CC(C4)C2)C3)c(O)c1,15.5 µM,32.8 µM
CCOC(=O)Nc1cc2c(c(N)n1)N=C(c1ccccc1)CO2,0.0366 µM,2.11 µM
CC1CC2CCCC(O)=C2C(=O)O1 (stereo not drawn),–,> 100 µM
CC(C)(/C=C(\C#N)C(=O)N1CCC[C@@H](n2nc(-c3ccc(Oc4ccccc4)cc3F)c3c(N)ncnc32)C1)N1CCN(C2COC2)CC1,3.34 µM,14 µM
Cc1ccc(C)c(NC(=O)c2cccc([N+](=O)[O-])c2O)c1,–,61.5 µM
O=c1oc2ccc(-c3ccc(F)cc3F)cc2c(=O)n1-c1cccc(C(F)(F)F)c1,2.09 µM,5.63 µM
COC(=O)c1ccc2c(c1)C(=O)c1c-2n(CCCN=[N+]=[N-])c(=O)c2cc(OC)c(OC)cc12,> 100 µM,> 100 µM
O=C(Cc1ccc(F)c(Cl)c1)Nc1cc(C2(C(F)(F)F)CC2)nn1CC1CCCCC1,3.74 µM,12.3 µM
N#Cc1nn(-c2cc(=O)[nH]c3ccc(Cl)cc23)c(N)c1C#N,> 100 µM,> 100 µM
On1c(-c2ccccc2)c(-c2ccccc2N2CCCC2)c2ccccc21,–,> 100 µM
CCN1CCN(c2cc(C)c3cc(NC(=O)c4ccc(OC)c(OC)c4)ccc3n2)CC1,3.48 µM,> 86.3 µM
CC(C)(C)c1cc(C(P(=O)(O)O)P(=O)(O)O)cc(C(C)(C)C)c1O,–,> 100 µM
COC(=O)c1c2c(c(C)[n+]([O-])c1C)C(=O)C=C(NCc1ccc(F)cc1)C2=O,0.357 µM,2.22 µM
CC(C)C1=Cc2ccc3c(c2C(=O)C1=O)CCCC3(C)C,–,33.1 µM
CSc1nc(SC)c2c(C#N)[nH]nc2n1,–,> 100 µM
CCCC(=O)Nc1cn(COC)c(C(=O)N2C[C@@H]3C[C@]34C2=CC(=O)c2[nH]cc(C)c24)n1,10.5 µM,> 5 µM and 24.5 µM
CC(=O)Nc1ccc(-c2csc(Nc3cccc(-c4csc(C)n4)c3)n2)cc1,0.404 µM,6.07 µM
CNCCOC(=O)/C=C1\CC[C@H]2[C@@H]([C@@H](O)C(=O)[C@@H]3[C@]2(C)CC[C@H](O)[C@]3(C)C(=O)OC)[C@H]1C,0.564 µM,2.12 µM

# Test system: M14 melanoma
# Assay: DTP human tumour cell line panel, 48 h
SMILES,GI50,TGI
CN1CCN(c2ccc(Nc3cc(-c4cccc(-n5ccc6cc(C7CC7)cc(F)c6c5=O)c4CO)cn(C)c3=O)nc2)CC1,2.69 µM,8.19 µM
COc1ccc2nc3ccccc3c(NCc3ccc(F)cc3)c2c1,2.23 µM,8.18 µM
CN(C)C1CCN(C(=O)c2ccc(NC(=O)Nc3ccc(-c4nc(N5CCOCC5)c5cccn5n4)cc3)cc2)CC1,0.281 µM,9.15 µM
COc1ccc(OCC(=O)O)c2c1CCCC2=O,–,> 100 µM
COc1cc(N=Nc2ccc(O)c3ncccc23)c2ncccc2c1,2.66 µM,> 100 µM
Cc1nc(Nc2ccc(Cl)cc2)sc1C(=O)NNC(=S)NN,–,35.1 µM
CCn1c(O)c(/C=N/NC(=O)C(C)c2ccc(CC(C)C)cc2)sc1=S (stereo not drawn),0.285 µM,14.5 µM
C[C@@H]1C[C@@H]([C@@H](CC2CC(=O)NC(=O)C2)OC(=O)CC(=O)c2ccccc2)C(=O)[C@@H](C)C1,0.588 µM,> 49.1 µM
N=c1c2c(-c3ccccc3)c(-c3ccccc3)n(Cc3ccccc3)c2ncn1C1CCC(O)CC1 (stereo not drawn),0.894 µM,2.38 µM
O=c1c(F)cn(Cc2ccc(C34CC5CC(CC(C5)C3)C4)c(O)c2)c(=O)n1Cc1ccc(C23CC4CC(CC(C4)C2)C3)c(O)c1,18.4 µM,45.3 µM
CCOC(=O)Nc1cc2c(c(N)n1)N=C(c1ccccc1)CO2,0.166 µM,93 µM
CC1CC2CCCC(O)=C2C(=O)O1 (stereo not drawn),–,> 100 µM
CC(C)(/C=C(\C#N)C(=O)N1CCC[C@@H](n2nc(-c3ccc(Oc4ccccc4)cc3F)c3c(N)ncnc32)C1)N1CCN(C2COC2)CC1,4.82 µM,18.8 µM
Cc1ccc(C)c(NC(=O)c2cccc([N+](=O)[O-])c2O)c1,–,> 100 µM
O=c1oc2ccc(-c3ccc(F)cc3F)cc2c(=O)n1-c1cccc(C(F)(F)F)c1,0.525 µM,4.21 µM
COC(=O)c1ccc2c(c1)C(=O)c1c-2n(CCCN=[N+]=[N-])c(=O)c2cc(OC)c(OC)cc12,> 100 µM,> 100 µM
O=C(Cc1ccc(F)c(Cl)c1)Nc1cc(C2(C(F)(F)F)CC2)nn1CC1CCCCC1,4.3 µM,> 15 µM
N#Cc1nn(-c2cc(=O)[nH]c3ccc(Cl)cc23)c(N)c1C#N,> 100 µM,> 100 µM
On1c(-c2ccccc2)c(-c2ccccc2N2CCCC2)c2ccccc21,–,> 100 µM
CCN1CCN(c2cc(C)c3cc(NC(=O)c4ccc(OC)c(OC)c4)ccc3n2)CC1,8.88 µM,> 100 µM
CC(C)(C)c1cc(C(P(=O)(O)O)P(=O)(O)O)cc(C(C)(C)C)c1O,–,> 100 µM
COC(=O)c1c2c(c(C)[n+]([O-])c1C)C(=O)C=C(NCc1ccc(F)cc1)C2=O,0.513 µM,1.9 µM
CC(C)C1=Cc2ccc3c(c2C(=O)C1=O)CCCC3(C)C,–,16.2 µM
CSc1nc(SC)c2c(C#N)[nH]nc2n1,–,> 100 µM
CCCC(=O)Nc1cn(COC)c(C(=O)N2C[C@@H]3C[C@]34C2=CC(=O)c2[nH]cc(C)c24)n1,4.12 µM,50 µM and 16.2 µM
CC(=O)Nc1ccc(-c2csc(Nc3cccc(-c4csc(C)n4)c3)n2)cc1,0.743 µM,8.81 µM
